This assay addresses T1, TRAP1 enzyme (Homo sapiens, UniProt Q12931).
T1 construct: 150 nM Trap1 enzyme was incubated with various concentrations of the test compound
T1 sequence (Q12931 60-704): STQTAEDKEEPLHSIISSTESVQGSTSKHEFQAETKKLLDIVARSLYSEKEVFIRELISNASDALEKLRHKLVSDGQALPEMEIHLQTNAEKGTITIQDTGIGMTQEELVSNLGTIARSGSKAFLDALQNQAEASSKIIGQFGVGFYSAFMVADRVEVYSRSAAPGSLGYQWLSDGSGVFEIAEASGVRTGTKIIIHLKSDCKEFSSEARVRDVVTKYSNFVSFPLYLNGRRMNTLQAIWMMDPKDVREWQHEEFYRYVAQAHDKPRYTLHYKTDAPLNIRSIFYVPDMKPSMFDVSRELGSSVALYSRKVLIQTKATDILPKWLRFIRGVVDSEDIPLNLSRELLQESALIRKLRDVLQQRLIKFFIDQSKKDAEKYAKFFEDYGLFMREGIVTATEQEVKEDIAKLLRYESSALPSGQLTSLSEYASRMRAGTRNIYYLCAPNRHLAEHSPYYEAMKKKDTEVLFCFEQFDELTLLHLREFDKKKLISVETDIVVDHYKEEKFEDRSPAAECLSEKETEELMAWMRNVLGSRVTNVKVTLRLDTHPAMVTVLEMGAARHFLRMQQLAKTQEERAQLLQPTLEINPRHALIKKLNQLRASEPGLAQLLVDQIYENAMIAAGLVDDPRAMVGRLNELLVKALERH
In words: ADP Glo assay of TRAP1 ATPase activity. It counts as biochemical. To be noted: 1 h; compound concentration 50 μM; read-out: ADP-Glo Percent Activation at 50 μM. The essentials: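 ADP-Glo luminescence quantifying ADP from 150 nM TRAP1 preincubated 30 min at 37° C with compound (0.79–100 μM), then 20 μM ATP for 60 min at 37° C. Buffer: 25 mM Pipes pH 7.5, 40 mM KCl, 0.05 mM MgCl2, EGTA, BSA, detergents. ADP from ATP/ADP standard curve; Emax and EC50 from sigmoidal fit.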
A general note: ADP-Glo turns the ADP formed in a reaction into a luminescent signal.

Regarding `COc1ccnc(C(=O)Nc2cnc(OC)c(S(=O)(=O)Nc3c(C)cccc3C)c2)c1` [compound 2657], the activation at 50 µM lay in the range of 181 to 352%. Under `COc1ncc(NC(=O)c2cncs2)cc1S(=O)(=O)Nc1c(C)cccc1C` [compound 2658] stands 120 to 150%. Under `COc1ncc(NC(=O)c2nc(C(F)(F)F)cs2)cc1S(=O)(=O)Nc1c(C)cccc1C` [compound 2659] stands 151 to 180%; under `COc1ncc(NC(=O)c2cnc(C(F)(F)F)s2)cc1S(=O)(=O)Nc1c(C)cccc1C` [compound 2660], 120 to 150%; under `COc1ncc(NC(=O)c2cnc(C)s2)cc1S(=O)(=O)Nc1c(C)cccc1C` [compound 2661], 151 to 180%. Under `COc1ncc(NC(=O)c2ccc(OCC(F)(F)F)cc2)cc1S(=O)(=O)Nc1c(C)cccc1C` [compound 2662] stands 120 to 150%; under `COc1ncc(NC(=O)c2cc3n(n2)CCC3)cc1S(=O)(=O)Nc1c(C)cccc1C` [compound 2663], 151 to 180%; under `COCCn1ccc(C(=O)Nc2cnc(OC)c(S(=O)(=O)Nc3c(C)cccc3C)c2)n1` [compound 2665], 120 to 150%. For the molecule `COc1ncc(NC(=O)c2ccn(C)c2)cc1S(=O)(=O)Nc1c(C)cccc1C` [compound 2666], the activation at 50 µM fell in the range of 120 to 150%. Under `COc1ncc(NC(=O)c2ncsc2C)cc1S(=O)(=O)Nc1c(C)cccc1C` [compound 2667] stands 181 to 352%. Under `COc1ncc(NC(=O)c2cc(NC(C)=O)ccc2Cl)cc1S(=O)(=O)Nc1c(C)cccc1C` [compound 2669] stands 151 to 180%; under `COc1ncc(NC(=O)c2ccc(NC(C)=O)cc2C)cc1S(=O)(=O)Nc1c(C)cccc1C` [compound 2670], 151 to 180%; under `COc1ncc(NC(=O)c2ccc(NC(=O)C3CC3)cc2)cc1S(=O)(=O)Nc1c(C)cccc1C` [compound 2671], 120 to 150%. `COc1ncc(NC(=O)c2ncn(C)c2C(F)(F)F)cc1S(=O)(=O)Nc1c(C)cccc1C` [compound 2672]: the activation at 50 µM lay within 120 to 150%. Under `COc1ncc(NC(=O)c2cnn3c2CCCC3)cc1S(=O)(=O)Nc1c(C)cccc1C` [compound 2673] stands 181 to 352%. Under `COc1ncc(NC(=O)c2coc(N3CCOCC3)n2)cc1S(=O)(=O)Nc1c(C)cccc1C` [compound 2674] stands 151 to 180%; under `CCOc1c(C(=O)Nc2cnc(OC)c(S(=O)(=O)Nc3c(C)cccc3C)c2)cnn1C` [compound 2675], 120 to 150%; under `COc1ncc(NC(=O)c2ccc3c(c2)NC(=O)CC3)cc1S(=O)(=O)Nc1c(C)cccc1C` [compound 2677], 120 to 150%. Under `COc1ncc(NC(=O)c2cnn(C)c2C(F)(F)F)cc1S(=O)(=O)Nc1c(C)cccc1C` [compound 2678] stands 151 to 180%; under `COCCn1nccc1C(=O)Nc1cnc(OC)c(S(=O)(=O)Nc2c(C)cccc2C)c1` [compound 2679], 120 to 150%; under `COc1ncc(NC(=O)c2ccc(CNC(C)=O)cc2)cc1S(=O)(=O)Nc1c(C)cccc1C` [compound 2682], 151 to 180%. On to `COc1ncc(NC(=O)c2csc(C(F)(F)F)c2)cc1S(=O)(=O)Nc1c(C)cccc1C` [compound 2683], for which the activation at 50 µM was in the range of 120 to 150%. Under `COc1ncc(NC(=O)c2cnn(CC(F)(F)F)c2)cc1S(=O)(=O)Nc1c(C)cccc1C` [compound 2684] stands 120 to 150%.

As for `COc1ncc(NC(=O)c2nsnc2Cl)cc1S(=O)(=O)Nc1c(C)cccc1C` [compound 2687], the activation at 50 µM lay in the range of 151 to 180%. Under `COc1ncc(NC(=O)c2ccc(NC(C)=O)c(C)c2)cc1S(=O)(=O)Nc1c(C)cccc1C` [compound 2688] stands 151 to 180%; under `COc1ncc(NC(=O)c2cc(C(C)C)on2)cc1S(=O)(=O)Nc1c(C)cccc1C` [compound 2689], 181 to 352%; under `CCc1cc(C(=O)Nc2cnc(OC)c(S(=O)(=O)Nc3c(C)cccc3C)c2)no1` [compound 2690], 151 to 180%. Under `CCn1nc(C(=O)Nc2cnc(OC)c(S(=O)(=O)Nc3c(C)cccc3C)c2)cc1C` [compound 2691] stands 181 to 352%; under `COc1ncc(NC(=O)c2nc(C)oc2C)cc1S(=O)(=O)Nc1c(C)cccc1C` [compound 2692], 120 to 150%; under `COc1ncc(NC(=O)c2onc3c2CCCC3)cc1S(=O)(=O)Nc1c(C)cccc1C` [compound 2693], 120 to 150%.

Consider `COc1ncc(NC(=O)c2sccc2C(F)(F)F)cc1S(=O)(=O)Nc1c(C)cccc1C` [compound 2694], for which the activation at 50 µM was in the range of 181 to 352%. Under `COc1ncc(NC(=O)c2cc(C(F)(F)F)n[nH]2)cc1S(=O)(=O)Nc1c(C)cccc1C` [compound 2695] stands 151 to 180%. Under `COc1ncc(NC(=O)c2cccc(NC(C)=O)c2)cc1S(=O)(=O)Nc1c(C)cccc1C` [compound 2696] stands 181 to 352%. Under `COc1ncc(NC(=O)c2coc(C(C)C)n2)cc1S(=O)(=O)Nc1c(C)cccc1C` [compound 2697] stands 181 to 352%; under `COc1ncc(NC(=O)c2ccc(NC(=O)C(C)(C)C)cc2)cc1S(=O)(=O)Nc1c(C)cccc1C` [compound 2699], 151 to 180%. Take `COc1ncc(NC(=O)c2cnn(C3CCCCC3)c2)cc1S(=O)(=O)Nc1c(C)cccc1C` [compound 2700]: the activation at 50 µM lay within 181 to 352%. Under `COc1ncc(NC(=O)c2n[nH]c3c2CCC3)cc1S(=O)(=O)Nc1c(C)cccc1C` [compound 2701] stands 181 to 352%; under `COc1ncc(NC(=O)c2csnc2C)cc1S(=O)(=O)Nc1c(C)cccc1C` [compound 2703], 120 to 150%. Under `COc1ncc(NC(=O)c2conc2C)cc1S(=O)(=O)Nc1c(C)cccc1C` [compound 2706] stands 120 to 150%; under `COc1ncc(NC(=O)c2oncc2C)cc1S(=O)(=O)Nc1c(C)cccc1C` [compound 2708], 120 to 150%. Under `COc1ncc(NC(=O)c2ccn[nH]2)cc1S(=O)(=O)Nc1c(C)cccc1C` [compound 2709] stands 120 to 150%; under `COc1ncc(NC(=O)c2nn(C)c(C)c2Cl)cc1S(=O)(=O)Nc1c(C)cccc1C` [compound 2710], 181 to 352%. Regarding `CCc1oncc1C(=O)Nc1cnc(OC)c(S(=O)(=O)Nc2c(C)cccc2C)c1` [compound 2711], the activation at 50 µM was in the range of 120 to 150%. Under `COc1ncc(NC(=O)c2ncco2)cc1S(=O)(=O)Nc1c(C)cccc1C` [compound 2712] stands 120 to 150%; under `COc1ncc(NC(=O)c2cnn(C)c2C(F)F)cc1S(=O)(=O)Nc1c(C)cccc1C` [compound 2713], 181 to 352%; under `CCCc1nnsc1C(=O)Nc1cnc(OC)c(S(=O)(=O)Nc2c(C)cccc2C)c1` [compound 2714], 181 to 352%. Under `COc1ncc(NC(=O)c2cccc(CN3CCN(C)CC3)c2)cc1S(=O)(=O)Nc1c(C)cccc1C` [compound 2715] stands 120 to 150%. Under `COc1ncc(NC(=O)c2cc(C)sn2)cc1S(=O)(=O)Nc1c(C)cccc1C` [compound 2716] stands 181 to 352%; under `COc1ncc(NC(=O)c2ncoc2C)cc1S(=O)(=O)Nc1c(C)cccc1C` [compound 2718], 151 to 180%.
